EPA's ToxRefDB 2

What was measured:
dog [1] = conditions: Chronic toxicity, beagle, Oral, Capsule, dose end: 52 week, group: systemic
rat [2] = conditions: Prenatal developmental toxicity study, sprague dawley, Oral, Gavage/Intubation, dose end: 17 GD
mouse [3] = conditions: Carcinogenicity, cd1, Oral, Feed, dose end: 80 week, group: systemic
rat [4] = conditions: Subchronic oral toxicity in rodents, fischer, [Not Specified], dose end: 90 day, group: systemic
dog [5] = conditions: Subchronic oral toxicity in nonrodent, beagle, Capsule, dose end: 90 day, group: systemic
mouse [6] = conditions: Subchronic oral toxicity in rodents, cd1, Feed, dose end: 90 day, group: systemic
rat [7] = conditions: Combined chronic toxicity/carcinogenicity, fischer, Oral, Feed, dose end: 104 week, group: systemic
rabbit = conditions: Prenatal developmental toxicity study, new zealand white, Oral, Gavage/Intubation, dose end: 18 GD
mouse [8] = conditions: Carcinogenicity; cd1; Oral; Feed; dose end: 80 week; group: systemic; systemic / pathology microscopic / liver / adenoma + systemic / in life observation / body weight / body weight gain + systemic / in life …
dog [9] = conditions: Chronic toxicity; beagle; Oral; Feed; dose end: 52 week; group: systemic; systemic / organ weight / liver / relative to body weight + systemic / pathology microscopic / liver / vacuolization + systemic / pathology …
rat [10] = conditions: Subchronic oral toxicity in rodents, sprague dawley, Feed, dose end: 90 day, group: systemic, systemic / in life observation / body weight / body weight + systemic / in life observation / body weight / body weight gain + systemic / in…
dog [11] = conditions: Subchronic oral toxicity in nonrodent, beagle, Feed, dose end: 90 day, group: systemic, systemic / hematology / erythrocyte (rbc) count differential / erythrocyte (rbc) + systemic / hematology / hematocrit (hct) / hematocrit (…
rat [12] = conditions: Combined chronic toxicity/carcinogenicity, other, Oral, Feed, dose end: 24 month, group: systemic
[13] = systemic / pathology gross / gallbladder / discolored + systemic / pathology microscopic / liver / hemosiderin laden macrophages
[14] = group: developmental, developmental / developmental malformation / bone / misshapen + developmental / developmental malformation / bone / supernumerary + …
[15] = group: maternal, systemic / in life observation / clinical signs / general pallor + systemic / in life observation / clinical signs / piloerection + systemic…
[16] = systemic / clinical chemistry / alanine aminotransferase (alt/sgpt) / alanine aminotransferase (alt/sgpt) + systemic / clinical chemistry / …
[17] = systemic / hematology / blood clotting / blood clotting - activated partial thromboplastin time + systemic / hematology / blood clotting / …
[18] = systemic / in life observation / body weight / body weight gain + systemic / in life observation / food consumption / food efficiency
[19] = systemic / in life observation / body weight / body weight gain + systemic / in life observation / food consumption / food efficiency + …
[20] = systemic / clinical chemistry / albumin / albumin + systemic / hematology / eosinophils / eosinophils + systemic / hematology / neutrophils…
[21] = systemic / hematology / eosinophils / eosinophils + systemic / hematology / neutrophils / neutrophils + systemic / organ weight / liver / …
[22] = systemic / urinalysis / appearance and color / appearance and color + systemic / pathology microscopic / pancreas / proliferation
[23] = group: developmental, developmental / developmental malformation / bone / full supernumerary
[24] = group: maternal, reproductive / reproductive performance / resorptions / resorptions + systemic / in life observation / body weight / body weight gain + …
[25] = systemic / in life observation / body weight / body weight gain
[26] = systemic / in life observation / body weight / body weight gain + systemic / in life observation / body weight / body weight + systemic / …

## CCCCCCCCCCCCC1=C(OC(C)=O)C(=O)c2ccccc2C1=O [Acequinocyl]
Dog [1]; systemic / hematology / platelet / platelet + systemic / hematology / reticulocyte / reticulocyte
  LOAEL: 20 mg/kg/day
Dog [1]; systemic / hematology / platelet / platelet + systemic / hematology / reticulocyte / reticulocyte + systemic / clinical chemistry / albumin…
  NOAEL: 5 mg/kg/day
Dog [1]; [13]
  LEL: 5 mg/kg/day
  NEL: < 5 mg/kg/day
Rat [2]; [14]
  LEL: 750 mg/kg/day
  LOAEL: 750 mg/kg/day
  NEL: 500 mg/kg/day
  NOAEL: 500 mg/kg/day
Rat [2]; [15]
  LEL: 500 mg/kg/day
  LOAEL: 500 mg/kg/day
  NEL: 150 mg/kg/day
  NOAEL: 150 mg/kg/day
Mouse [3]; [16]
  LEL: 2.7 mg/kg/day
  NEL: < 2.7 mg/kg/day
  NOAEL: 7 mg/kg/day
Mouse [3]; systemic / pathology microscopic / liver / fatty change + systemic / pathology microscopic / liver / vacuolization
  LOAEL: 20.3 mg/kg/day
Rat [4]; systemic / clinical chemistry / gamma glutamyl transpeptides (gtp) / gamma glutamyl transpeptides (gtp) + systemic / urinalysis / appearance…
  LEL: 30.4 mg/kg/day
Rat [4]; [17]
  LOAEL: 120 mg/kg/day
  NEL: 7.6 mg/kg/day
  NOAEL: 30.4 mg/kg/day
Dog [5]; [18]
  LOAEL: 40 mg/kg/day
  NOAEL: < 40 mg/kg/day
Dog [5]; [19]
  LEL: 40 mg/kg/day
  NEL: < 40 mg/kg/day
Mouse [6]; [20]
  LOAEL: 81 mg/kg/day
  NOAEL: 16 mg/kg/day
Mouse [6]; [21]
  LEL: 16 mg/kg/day
  NEL: < 16 mg/kg/day
Rat [7]; systemic / pathology gross / eye / enlarged
  LOAEL: 9.02 mg/kg/day
Rat [7]; systemic / pathology gross / eye / enlarged + systemic / in life observation / body weight / body weight + systemic / in life observation / …
  NOAEL: 2.25 mg/kg/day
Rat [7]; [22]
  LEL: 2.92 mg/kg/day
  NEL: < 2.92 mg/kg/day
rabbit; [23]
  LEL: 120 mg/kg/day
  LOAEL: 120 mg/kg/day
  NEL: 60 mg/kg/day
  NOAEL: 60 mg/kg/day
rabbit; [24]
  LEL: 120 mg/kg/day
  LOAEL: 120 mg/kg/day
  NEL: 60 mg/kg/day
  NOAEL: 60 mg/kg/day

## COC(=O)c1ccccc1S(=O)(=O)NC(=O)Nc1nc(OC(F)F)cc(OC(F)F)n1 [Primisulfuron-methyl]
Mouse [8]
  LEL: 408 mg/kg/day
  LOAEL: 408 mg/kg/day
  NEL: 40.2 mg/kg/day
  NOAEL: 40.2 mg/kg/day
Dog [9]
  LEL: 125 mg/kg/day
  LOAEL: 125 mg/kg/day
  NEL: 25 mg/kg/day
  NOAEL: 25 mg/kg/day
Rat [10]
  LEL: 150 mg/kg/day
  LOAEL: 150 mg/kg/day
  NEL: 15 mg/kg/day
  NOAEL: 15 mg/kg/day
Dog [11]
  LEL: 250 mg/kg/day
  LOAEL: 250 mg/kg/day
  NEL: 25 mg/kg/day
  NOAEL: 25 mg/kg/day
Rat [12]; [25]
  LEL: 127 mg/kg/day
  LOAEL: 127 mg/kg/day
Rat [12]; [26]
  NEL: 12.4 mg/kg/day
  NOAEL: 12.4 mg/kg/day
